In general, AC50 refers to the concentration at which the activity in the assay is half-maximal. In general, EC50 refers to the concentration needed to bring the measured effect to its halfway point. As usually defined, the IC50 is the concentration needed to halve the response being measured.

Each structure is given as a SMILES string. The source made the active and inactive calls.

The results in this text go back to ChEMBL document CHEMBL1201862, “PubChem BioAssay data set” (2004).

Series [1] concerns the target Cytochrome P450 2D6 (Homo sapiens, UniProt P10635).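 Further: CYP2D6 member of a cytochrome P450 panel assay.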
In series [2] the target is Cytochrome P450 3A4 (Homo sapiens, UniProt P08684).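 Further: CYP3A4 tested as one member of a cytochrome P450 panel screen.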
Cytochrome P450 3A4, sequence (P08684 whole entry): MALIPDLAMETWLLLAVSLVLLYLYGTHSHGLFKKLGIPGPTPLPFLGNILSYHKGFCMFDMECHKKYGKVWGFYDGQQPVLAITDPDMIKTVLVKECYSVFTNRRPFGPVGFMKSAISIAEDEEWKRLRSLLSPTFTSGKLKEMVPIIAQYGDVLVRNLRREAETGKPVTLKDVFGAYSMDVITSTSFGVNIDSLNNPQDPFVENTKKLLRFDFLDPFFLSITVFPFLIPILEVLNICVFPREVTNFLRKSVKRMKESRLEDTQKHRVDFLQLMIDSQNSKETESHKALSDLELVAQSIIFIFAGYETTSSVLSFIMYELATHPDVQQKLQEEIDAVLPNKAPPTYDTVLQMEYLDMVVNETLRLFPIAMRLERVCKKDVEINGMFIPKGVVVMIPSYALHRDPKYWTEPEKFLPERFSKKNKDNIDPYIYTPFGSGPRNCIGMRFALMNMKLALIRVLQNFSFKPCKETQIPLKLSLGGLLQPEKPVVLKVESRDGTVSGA
Series [3] deals with Luciferin 4-monooxygenase (Photinus pyralis, UniProt P08659). The experiment in a line: inhibition of purified Photinus pyralis luciferase – biochemical, luminescence, dose response (AID 1891).
Luciferin 4-monooxygenase, sequence (P08659 whole entry): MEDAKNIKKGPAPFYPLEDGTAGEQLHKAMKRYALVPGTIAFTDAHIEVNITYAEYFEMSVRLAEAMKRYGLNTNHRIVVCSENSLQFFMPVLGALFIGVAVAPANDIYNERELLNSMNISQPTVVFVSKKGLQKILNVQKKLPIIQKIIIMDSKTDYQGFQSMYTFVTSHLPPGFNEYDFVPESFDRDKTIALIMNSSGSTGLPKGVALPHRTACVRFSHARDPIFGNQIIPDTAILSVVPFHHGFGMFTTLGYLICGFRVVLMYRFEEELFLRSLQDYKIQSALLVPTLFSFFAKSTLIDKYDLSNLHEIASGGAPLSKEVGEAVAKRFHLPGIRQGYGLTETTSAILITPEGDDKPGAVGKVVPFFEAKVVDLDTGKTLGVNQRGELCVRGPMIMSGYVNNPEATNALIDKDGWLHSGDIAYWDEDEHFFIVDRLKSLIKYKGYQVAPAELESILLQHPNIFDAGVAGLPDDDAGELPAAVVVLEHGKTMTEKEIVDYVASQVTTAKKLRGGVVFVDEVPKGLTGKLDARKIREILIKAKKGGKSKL
Series [4] is described as follows: Luminescence Cell-Based Dose Confirmation HTS to Identify Inhibitors of Platelet Dense Granule Release. [Related pubchem assays: 1663 (Primary HTS), 1678 (Summary of Project)]. The format is functional.
In series [5] the target is T1, Short transient receptor potential channel 4 (Mus musculus, UniProt Q9QUQ5).
T1 sequence (Q9QUQ5 whole entry): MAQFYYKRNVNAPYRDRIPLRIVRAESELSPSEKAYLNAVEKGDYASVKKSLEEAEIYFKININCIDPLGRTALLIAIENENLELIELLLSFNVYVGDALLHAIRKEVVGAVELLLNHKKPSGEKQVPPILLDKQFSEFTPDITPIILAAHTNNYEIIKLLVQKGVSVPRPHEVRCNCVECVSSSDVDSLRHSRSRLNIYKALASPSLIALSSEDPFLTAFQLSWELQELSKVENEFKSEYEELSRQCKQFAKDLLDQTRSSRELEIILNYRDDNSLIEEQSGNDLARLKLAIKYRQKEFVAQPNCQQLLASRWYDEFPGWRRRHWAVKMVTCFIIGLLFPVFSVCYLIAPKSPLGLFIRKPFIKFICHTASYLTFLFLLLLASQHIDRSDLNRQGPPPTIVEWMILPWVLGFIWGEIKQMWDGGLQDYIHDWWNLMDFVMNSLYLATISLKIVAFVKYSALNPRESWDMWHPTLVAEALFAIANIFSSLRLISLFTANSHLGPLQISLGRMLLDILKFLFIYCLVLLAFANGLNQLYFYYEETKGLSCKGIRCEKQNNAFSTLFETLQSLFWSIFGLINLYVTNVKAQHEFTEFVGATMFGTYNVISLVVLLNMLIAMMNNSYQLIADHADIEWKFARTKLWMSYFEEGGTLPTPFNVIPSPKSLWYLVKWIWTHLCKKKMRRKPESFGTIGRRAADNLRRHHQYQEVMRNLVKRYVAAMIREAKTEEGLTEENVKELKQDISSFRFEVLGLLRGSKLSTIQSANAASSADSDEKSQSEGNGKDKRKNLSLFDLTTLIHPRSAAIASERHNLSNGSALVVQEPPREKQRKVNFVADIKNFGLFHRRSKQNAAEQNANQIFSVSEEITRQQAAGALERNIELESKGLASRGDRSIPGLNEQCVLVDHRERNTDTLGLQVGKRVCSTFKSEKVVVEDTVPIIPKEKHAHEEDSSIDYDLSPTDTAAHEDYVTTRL
The experiment in a line: calcium entry via TRPC4 opening agents – cell-based, HEK293 TRPC4/mu-opioid, Fluo-4 calcium, dose response (AID 434937). The format is functional.

For series [6], the target named is T2, Tyrosine-protein phosphatase non-receptor type 7 (Homo sapiens, UniProt P35236).
T2 sequence (P35236 whole entry): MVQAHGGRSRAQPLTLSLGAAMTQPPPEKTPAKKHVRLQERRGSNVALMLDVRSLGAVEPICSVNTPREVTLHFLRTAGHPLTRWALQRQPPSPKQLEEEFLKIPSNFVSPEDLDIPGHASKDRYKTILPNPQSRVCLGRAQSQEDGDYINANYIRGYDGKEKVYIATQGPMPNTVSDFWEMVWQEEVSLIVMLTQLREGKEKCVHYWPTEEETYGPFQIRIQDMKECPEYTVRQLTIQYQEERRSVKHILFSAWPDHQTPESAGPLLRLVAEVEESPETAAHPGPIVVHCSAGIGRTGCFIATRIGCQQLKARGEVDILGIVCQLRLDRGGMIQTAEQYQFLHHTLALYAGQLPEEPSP
The format is functional.

Series [7] deals with T3, Tyrosine-protein phosphatase non-receptor type 22 (Homo sapiens, UniProt Q9Y2R2).
T3 sequence (Q9Y2R2 whole entry): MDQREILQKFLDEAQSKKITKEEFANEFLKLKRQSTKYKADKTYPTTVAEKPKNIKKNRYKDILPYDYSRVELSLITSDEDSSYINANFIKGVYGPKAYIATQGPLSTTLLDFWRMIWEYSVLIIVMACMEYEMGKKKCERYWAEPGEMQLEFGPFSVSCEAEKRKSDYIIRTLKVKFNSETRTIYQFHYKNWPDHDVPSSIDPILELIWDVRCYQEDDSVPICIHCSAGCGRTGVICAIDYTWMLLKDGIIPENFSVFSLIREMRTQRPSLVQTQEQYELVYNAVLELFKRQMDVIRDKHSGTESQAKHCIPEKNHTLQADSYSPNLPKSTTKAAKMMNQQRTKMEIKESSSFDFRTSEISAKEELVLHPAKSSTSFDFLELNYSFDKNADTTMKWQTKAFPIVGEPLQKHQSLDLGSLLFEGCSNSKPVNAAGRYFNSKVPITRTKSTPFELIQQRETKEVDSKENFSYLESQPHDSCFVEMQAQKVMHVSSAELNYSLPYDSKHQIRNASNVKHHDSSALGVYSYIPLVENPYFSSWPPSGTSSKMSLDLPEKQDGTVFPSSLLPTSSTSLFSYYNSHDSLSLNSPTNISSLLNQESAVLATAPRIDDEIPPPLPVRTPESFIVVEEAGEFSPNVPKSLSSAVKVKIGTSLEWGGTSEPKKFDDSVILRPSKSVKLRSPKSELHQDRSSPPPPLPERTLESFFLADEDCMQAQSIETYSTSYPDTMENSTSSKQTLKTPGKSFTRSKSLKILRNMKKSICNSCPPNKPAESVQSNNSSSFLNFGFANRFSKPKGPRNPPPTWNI
It is filed as functional.

Series [8] addresses T3, Tyrosine-protein phosphatase non-receptor type 22. It is filed as functional. This is another data set of the same source.
Series [9] deals with T4, Bcl-2-related protein A1 (Mus musculus, UniProt Q07440).
T4 sequence (Q07440 whole entry): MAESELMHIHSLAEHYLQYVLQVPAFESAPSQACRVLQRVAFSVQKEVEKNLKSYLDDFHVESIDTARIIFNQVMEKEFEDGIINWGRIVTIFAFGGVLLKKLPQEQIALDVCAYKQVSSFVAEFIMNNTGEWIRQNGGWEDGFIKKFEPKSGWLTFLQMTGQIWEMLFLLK
The format is functional.

Series [10] has as its target T5, Ubiquitin-conjugating enzyme E2 N (Homo sapiens, UniProt P61088).
T5 sequence (P61088 whole entry): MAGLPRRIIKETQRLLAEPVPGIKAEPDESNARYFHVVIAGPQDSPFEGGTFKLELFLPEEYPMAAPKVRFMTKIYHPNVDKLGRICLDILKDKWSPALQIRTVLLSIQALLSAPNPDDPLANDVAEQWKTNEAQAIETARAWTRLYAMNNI
The format is functional.

Series [11] addresses T5, Ubiquitin-conjugating enzyme E2 N. The format is functional. This is another data set of the same source.
Series [12] addresses Beta-lactamase (Salmonella choleraesuis (strain SC-B67), UniProt Q5J463). The series is described as follows: Epi-absorbance-based counterscreen for selective VIM-2 inhibitors: dose response biochemical high throughput screening assay to identify inhibitors of TEM-1 serine-beta-lactamase. For orientation: A counterscreen serves to expose hits that act by an unwanted route or on another target.

For series [13], the target named is T6, Beta-lactamase (Pseudomonas aeruginosa, UniProt Q79MP6). The experiment in a line: inhibition of IMP-1 beta-lactamase activity – biochemical, epi-absorbance, selectivity assay for VIM-2 inhibitor project, dose response (AID 1920).
T6 sequence (Q79MP6 whole entry): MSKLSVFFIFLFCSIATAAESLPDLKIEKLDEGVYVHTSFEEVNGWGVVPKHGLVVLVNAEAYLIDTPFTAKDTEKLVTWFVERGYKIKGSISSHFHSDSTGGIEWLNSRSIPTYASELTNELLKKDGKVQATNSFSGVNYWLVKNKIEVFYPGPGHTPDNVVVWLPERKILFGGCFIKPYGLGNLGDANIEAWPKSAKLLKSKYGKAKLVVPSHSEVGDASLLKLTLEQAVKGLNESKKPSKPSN
For series [14], the target named is T6, Beta-lactamase. The experiment in a line: […] counterscreen for selective VIM-2 inhibitors: dose response biochemical high throughput screening assay to identify inhibitors of IMP-1 metallo-beta-lactamase.
The target of series [15] is T7, Cytochrome P450 1A2 (Homo sapiens, UniProt P05177).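 Further: PubChem cytochrome P450 panel assay, CYP1A2 panel member.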
T7 sequence (P05177 whole entry): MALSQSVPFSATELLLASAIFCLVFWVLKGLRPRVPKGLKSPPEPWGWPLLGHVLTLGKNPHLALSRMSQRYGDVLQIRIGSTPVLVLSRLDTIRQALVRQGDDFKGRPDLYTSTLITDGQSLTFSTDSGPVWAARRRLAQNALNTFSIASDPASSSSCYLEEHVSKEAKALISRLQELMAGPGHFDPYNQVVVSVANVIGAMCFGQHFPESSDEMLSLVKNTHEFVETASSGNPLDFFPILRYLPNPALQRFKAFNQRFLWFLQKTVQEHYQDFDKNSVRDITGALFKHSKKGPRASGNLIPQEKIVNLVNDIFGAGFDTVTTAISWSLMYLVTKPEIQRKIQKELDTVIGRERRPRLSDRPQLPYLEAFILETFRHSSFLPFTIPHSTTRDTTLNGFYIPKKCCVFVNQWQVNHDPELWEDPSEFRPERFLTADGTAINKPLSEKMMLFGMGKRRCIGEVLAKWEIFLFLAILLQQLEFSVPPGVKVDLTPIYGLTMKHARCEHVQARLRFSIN

The target of series [16] is Cytochrome P450 2C9 (Homo sapiens, UniProt P11712).
Cytochrome P450 2C9, sequence (P11712 whole entry): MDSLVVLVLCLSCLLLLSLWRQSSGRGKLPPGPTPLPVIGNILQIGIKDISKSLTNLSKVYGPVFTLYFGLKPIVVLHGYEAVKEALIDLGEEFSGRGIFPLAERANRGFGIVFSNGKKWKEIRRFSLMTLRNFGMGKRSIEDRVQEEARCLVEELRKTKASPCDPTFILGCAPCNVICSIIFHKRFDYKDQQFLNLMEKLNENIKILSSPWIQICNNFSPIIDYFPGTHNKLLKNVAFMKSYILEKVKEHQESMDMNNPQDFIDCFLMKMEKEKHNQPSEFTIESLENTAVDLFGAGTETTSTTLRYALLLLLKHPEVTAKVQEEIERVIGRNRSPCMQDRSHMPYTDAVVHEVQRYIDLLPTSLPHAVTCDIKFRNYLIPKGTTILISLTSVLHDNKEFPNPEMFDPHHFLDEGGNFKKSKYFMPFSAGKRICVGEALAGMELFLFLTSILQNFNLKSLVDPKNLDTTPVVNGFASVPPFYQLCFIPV
Series [17] concerns CHO-K1. The experiment in a line: Counterscreen for antagonists of the orexin 1 receptor (OX1R; HCRTR1): Homogeneous time resolved fluorescence (HTRF)-based cell-based dose response assay to identify antagonists of the parental CHO-K1 cell line. [Related pubchem assays (depositor defined):AID434989, AID435008, AID463079, AID485270, AID492963, AID492964, AID492965, AID493232, AID504699, AID504701]. It is filed as functional. Conditions: Cricetulus griseus.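 Further: potency for inhibition of ATP-stimulated IP1 production as antagonists.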

Series [18] is described as follows: Counterscreen for antagonists of the orexin 1 receptor (OX1R; HCRTR1): Fluorescence-based cell-based high throughput dose response assay to identify antagonists of the parental CHO cell line. [Related pubchem assays (depositor defined):AID434989, AID435008, AID463079, AID485270, AID492963, AID492964, AID492965, AID493232, AID504699, AID504701]. It is filed as functional.

Series [19] deals with T8, Orexin/Hypocretin receptor type 1 (Homo sapiens, UniProt O43613).
T8 sequence (O43613 whole entry): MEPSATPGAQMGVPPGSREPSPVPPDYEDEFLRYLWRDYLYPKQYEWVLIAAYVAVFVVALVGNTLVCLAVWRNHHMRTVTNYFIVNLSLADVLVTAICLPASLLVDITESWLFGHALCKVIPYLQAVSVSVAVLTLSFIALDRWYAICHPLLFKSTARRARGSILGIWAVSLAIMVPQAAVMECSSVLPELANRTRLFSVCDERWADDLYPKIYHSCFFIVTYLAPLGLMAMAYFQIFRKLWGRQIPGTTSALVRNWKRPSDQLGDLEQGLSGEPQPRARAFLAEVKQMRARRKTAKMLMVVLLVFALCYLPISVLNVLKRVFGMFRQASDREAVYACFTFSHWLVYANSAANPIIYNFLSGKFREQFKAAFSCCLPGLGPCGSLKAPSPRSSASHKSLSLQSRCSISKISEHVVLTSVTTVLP
The series is described as follows: Homogeneous Time Resolved Fluorescence (HTRF)-based cell-based high throughput dose response assay for antagonists of the orexin 1 receptor (OX1R; HCRTR1). [Related pubchem assays (depositor defined):AID434989, AID435008, AID463079, AID485270, AID492963, AID492964, AID492965, AID493232, AID504717, AID504718]. It is filed as functional. (TR-FRET usually uses a lanthanide donor and a delayed reading to cut background.)

The target in series [20] is T8, Orexin/Hypocretin receptor type 1. The series is described as follows: Fluorescence-based cell-based high throughput dose response assay for antagonists of the orexin 1 receptor (OX1R; HCRTR1). [Related pubchem assays (depositor defined):AID434989, AID435008, AID463079, AID485270, AID492963, AID492964, AID492965, AID493232, AID504717, AID504718]. It is filed as functional.

Cytochrome P450 2D6, sequence (P10635 whole entry): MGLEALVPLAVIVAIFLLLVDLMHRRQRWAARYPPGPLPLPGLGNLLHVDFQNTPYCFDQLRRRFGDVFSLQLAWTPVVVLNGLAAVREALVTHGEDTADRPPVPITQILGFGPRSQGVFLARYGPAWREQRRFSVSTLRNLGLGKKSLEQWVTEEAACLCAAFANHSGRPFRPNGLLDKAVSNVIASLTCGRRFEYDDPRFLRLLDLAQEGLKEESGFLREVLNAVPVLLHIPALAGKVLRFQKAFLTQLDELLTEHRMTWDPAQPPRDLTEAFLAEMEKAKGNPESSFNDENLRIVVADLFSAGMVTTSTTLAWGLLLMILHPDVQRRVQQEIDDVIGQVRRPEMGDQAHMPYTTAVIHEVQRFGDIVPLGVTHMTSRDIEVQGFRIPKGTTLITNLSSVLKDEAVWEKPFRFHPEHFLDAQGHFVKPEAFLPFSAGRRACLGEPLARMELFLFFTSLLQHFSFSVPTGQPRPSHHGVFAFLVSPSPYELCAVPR
Beta-lactamase (Salmonella choleraesuis (strain SC-B67), UniProt Q5J463), sequence (Q5J463 whole entry): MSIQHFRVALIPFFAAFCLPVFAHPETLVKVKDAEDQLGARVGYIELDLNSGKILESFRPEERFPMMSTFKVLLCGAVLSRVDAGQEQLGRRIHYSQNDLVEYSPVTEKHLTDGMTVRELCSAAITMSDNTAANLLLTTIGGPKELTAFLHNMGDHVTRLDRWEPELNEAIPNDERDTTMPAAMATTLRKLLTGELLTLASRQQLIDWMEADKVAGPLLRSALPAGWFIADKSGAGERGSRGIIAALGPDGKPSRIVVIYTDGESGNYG

Regarding `O=C(Cn1cnc2ccccc2c1=O)NCCC(=O)Nc1ccc2c(c1)OCCO2`, the AC50 entry in [1] and in series [2] was “inconclusive” each time.
As for `CN1CCCC(OC(=O)c2cc(Br)ccc2Cl)C1` (stereo not given), the figures for the EC50 in series [3], in [4] and in [5] were > 112 µM (not active), > 56.1 µM (not active) and 0.211 µM (active), respectively.
Turning to `CC1Cc2ccccc2N1CC(=O)Nc1cccc(S(N)(=O)=O)c1` (stereo not given), the IC50 in series [6], in series [7] and in series [8] was > 79.4 µM (inactive) each time.
On to `COc1ccc(-c2nn(-c3ccccc3)cc2CNCc2cccnc2)c(F)c1`, for which, in series [5], the 50% effective concentration (EC50) was 5.96 µM (active).
With `Cc1c(NC(=O)CCCN2C(=O)c3cccc4cccc(c34)C2=O)c(=O)n(-c2ccccc2)n1C`, the IC50 in series [9] is > 20 µM (inactive); in series [10] it was 18.5 µM (active); in series [11], 8.02 µM (active).
`Cc1csc2c(N3CCN(C(=O)Nc4ccc(OC(F)(F)F)cc4)CC3)ncnc12`: in series [5], the concentration for a half-maximal effect (EC50) was 1.88 µM (active).
Turning to `CCCC(=O)Nc1nnc(SCC(=O)NCc2cccs2)s1`, the IC50 in series [12], in series [13] and in [14] was > 59.6 µM (inactive) each time. Moreover, the figures for the half-maximal activity concentration (AC50) in series [15] and in [2] were 10 µM (inconclusive) and “inconclusive”, respectively.
On to `CCN(CC(=O)NCc1cccs1)C(=O)c1cccc(S(=O)(=O)Nc2ccccc2OC)c1`, for which the IC50 in series [9] is > 20 µM (inactive); in series [10], 17.1 µM (active); in series [11], 11.3 µM (active).
In the case of `COc1ccc(Cc2nnc(NC(=O)c3ccccc3F)s2)cc1OC`, the IC50 in series [6], in series [7] and in [8] was > 79.4 µM (inactive) each time.
Take `COC(=O)COc1ccc(/C=C2/SC(=O)N(CC(=O)N3CCCC3)C2=O)cc1Br`: the half-maximal activity concentration (AC50) in series [16] was 10 µM (inconclusive); in series [2] it was “inconclusive”.
On to `Oc1ccccc1-c1nc(NCC2CCCO2)c2ccccc2n1` (stereo not given), for which the IC50 was > 66.2 µM (inactive) in [17], 45.8 µM (inactive) in [18], 3.73 µM (active) in [19] and 8.66 µM (active) in series [20].
